# Experiments:
# [1] = test system: LH-induced ovarian follicle rupture; test: ovarian hyperstimulation (superovulation) model: counting the oocytes released into the oviducts; assay type: in vivo, CD1 mice; conditions: for number of oocytes released into the oviducts compared with the control group: oocytes counted 18 h after hCG
# Protocol: The effect of the combined administration of ulipristal acetate (UPA) and of a non-steroidal anti-inflammatory agent (NSAID) on LH-induced ovarian follicle rupture was evaluated in an animal model of ovarian hyperstimulation (superovulation model).
# (§1) 24 to 28-day-old immature CD1 mice were subjected to ovarian hyperstimulation by injection of 5 IU of PMSG (pregnant mare's serum gonadotropin) followed, 48 h later, by 5 IU of hCG (chorionic gonadotropin hormone) intraperitoneally. The mice were divided up into several groups, each of 10 mice. 8 hours after the hCG injection, the mice were administered, intraperitoneally, with either the compound(s) to be tested, or the placebo (vehicle). The mice were euthanized 18 hours after the hCG injection. The effect of the compound(s) on follicular rupture and therefore ovulation was determined by counting the oocytes released into the oviducts. In experiment series No. 2, a morphological and histological examination of the ovaries was carried out so as to evaluate the presence of unruptured follicles and/or of yellow bodies in the ovaries of each group of animals.
# Series 1: • Group 1: placebo • Group 2: 3 mg/kg of piroxicam • Group 3: 10 mg/kg of piroxicam • Group 4: 30 mg/kg of piroxicam.
# Series 2: • Group 1: placebo • Group 2: 40 mg/kg of ulipristal acetate • Group 3: 40 mg/kg of ulipristal acetate+3 mg/kg of piroxicam • Group 4: 40 mg/kg of ulipristal acetate+30 mg/kg of piroxicam. […]
# follicular rupture = conditions: administration after the LH peak; cited from earlier work
# [2] = test system: LH-induced ovarian follicle rupture; test: morphological and histological examination of the ovaries (unruptured follicles, yellow bodies) in the superovulation model; assay type: in vivo, CD1 mice; conditions: 40 mg/kg UPA in the absence of piroxicam, compared with groups 3 and 4
# Protocol: as §1
# [3] = single dose of 30 mg within 72 or 120 hours after sexual intercourse; cited from earlier work
compound,measurement,setting,value
CC(C)Cc1ccc(C(C)C(=O)O)cc1 (stereo not drawn) [ibuprofen],effect on ovulation compared with the control group,"[1]; ibuprofen alone, dose between 15 mg and 150 mg (per kg)",no significant effect
CN1C(C(=O)Nc2ccccn2)=C(O)c2ccccc2S1(=O)=O [piroxicam],number of oocytes released into the oviducts compared with the control group,[1]; piroxicam 3 mg/kg i.p. 8 h after hCG,does not significantly reduce
same,number of oocytes released into the oviducts compared with the control group,[1]; piroxicam 10 mg/kg i.p. 8 h after hCG,does not significantly reduce
same,number of oocytes released into the oviducts compared with the control group,[1]; piroxicam 30 mg/kg i.p. 8 h after hCG,significantly reduce
"CC(=O)O[C@]1(C(C)=O)CCC2C3CCC4=CC(=O)CCC4=C3[C@@H](c3ccc(N(C)C)cc3)C[C@@]21C (stereo partly drawn) [ulipristal acetate, 17α-acetoxy-11β-[4-N,N-dimethylaminophenyl)-19-norpregna-4,9-diene-3,20-dione]","inhibition of follicular rupture during the 5 days following administration, cases",follicular rupture,8.3%
same,mean number of oocytes released compared with the control group,"[1]; 40 mg/kg UPA 8 h after hCG injection, piroxicam series 2",approximately −50%
same,number of oocytes released compared with the control group,"[1]; group 2: 40 mg/kg ulipristal acetate, ibuprofen series 2",significant decrease
same,yellow bodies (corpus luteum) in histological sections,[2],more numerous
same,prevention of unwanted pregnancy after unprotected or poorly protected sexual intercourse,[3],safe and effective
